According to ChEMBL document CHEMBL1148518, “Synthesis and SAR of alpha-sulfonylcarboxylic acids as potent matrix metalloproteinase inhibitors” (Bioorg Med Chem Lett, 2006):

How the values were obtained:
[1] = target: 72 kDa type IV collagenase (Homo sapiens, UniProt P08253)
[2] = target: Matrix metalloproteinase-9 (Homo sapiens, UniProt P14780)
Stromelysin-1 = Stromelysin-1 (Homo sapiens, UniProt P08254); assay: Inhibition of MMP3
Collagenase 3 = Collagenase 3 (Homo sapiens, UniProt P45452)
Interstitial collagenase = target: T1, Interstitial collagenase (Homo sapiens, UniProt P03956); assay: Inhibition of MMP1
T1 sequence (P03956 whole entry): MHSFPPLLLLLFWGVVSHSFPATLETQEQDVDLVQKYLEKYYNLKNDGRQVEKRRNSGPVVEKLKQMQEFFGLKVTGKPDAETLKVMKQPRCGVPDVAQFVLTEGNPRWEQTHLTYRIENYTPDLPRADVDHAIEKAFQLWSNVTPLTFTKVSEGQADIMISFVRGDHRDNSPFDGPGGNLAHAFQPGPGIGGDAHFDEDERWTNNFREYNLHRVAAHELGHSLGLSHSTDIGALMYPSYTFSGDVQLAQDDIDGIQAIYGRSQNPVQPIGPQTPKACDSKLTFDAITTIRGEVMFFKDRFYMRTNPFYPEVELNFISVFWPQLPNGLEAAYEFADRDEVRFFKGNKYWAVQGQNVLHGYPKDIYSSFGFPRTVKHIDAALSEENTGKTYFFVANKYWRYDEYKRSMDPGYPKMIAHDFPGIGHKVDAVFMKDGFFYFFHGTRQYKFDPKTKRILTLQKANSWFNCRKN

[3] = AUC in rat at 0.5 mg/kg, iv; assay type: ADME, organism-based; design: dose 0.5 mg/kg, route intravenous; details: plasma
[4] = Initial concentration in rat at 0.5 mg/kg, iv; assay type: ADME, organism-based; design: dose 0.5 mg/kg, route intravenous; details: in vivo
[5] = Metabolic stability in human liver microsomes; assay type: ADME, Microsome
Rattus norvegicus [6] = assay: (§1) Apparent elimination half life in rat at 0.5 mg/kg, iv; assay type: ADME, organism-based; design: dose 0.5 mg/kg, route intravenous; details: in vivo
Rattus norvegicus [7] = assay: (§2) Volume of distribution in rat at 0.5 mg/kg, iv; assay type: ADME, organism-based; design: dose 0.5 mg/kg, route intravenous; details: in vivo
[8] = as §1; assay type: ADME, organism-based; design: dose 0.5 mg/kg, route intravenous; details: in vivo
[9] = as §2; assay type: ADME, organism-based; design: dose 0.5 mg/kg, route intravenous; details: in vivo, read-out: Vss
[10] = Clearance in rat at 0.5 mg/kg, iv; assay type: ADME, organism-based; design: dose 0.5 mg/kg, route intravenous; details: in vivo

Chain of 72 kDa type IV collagenase (P08253 whole entry): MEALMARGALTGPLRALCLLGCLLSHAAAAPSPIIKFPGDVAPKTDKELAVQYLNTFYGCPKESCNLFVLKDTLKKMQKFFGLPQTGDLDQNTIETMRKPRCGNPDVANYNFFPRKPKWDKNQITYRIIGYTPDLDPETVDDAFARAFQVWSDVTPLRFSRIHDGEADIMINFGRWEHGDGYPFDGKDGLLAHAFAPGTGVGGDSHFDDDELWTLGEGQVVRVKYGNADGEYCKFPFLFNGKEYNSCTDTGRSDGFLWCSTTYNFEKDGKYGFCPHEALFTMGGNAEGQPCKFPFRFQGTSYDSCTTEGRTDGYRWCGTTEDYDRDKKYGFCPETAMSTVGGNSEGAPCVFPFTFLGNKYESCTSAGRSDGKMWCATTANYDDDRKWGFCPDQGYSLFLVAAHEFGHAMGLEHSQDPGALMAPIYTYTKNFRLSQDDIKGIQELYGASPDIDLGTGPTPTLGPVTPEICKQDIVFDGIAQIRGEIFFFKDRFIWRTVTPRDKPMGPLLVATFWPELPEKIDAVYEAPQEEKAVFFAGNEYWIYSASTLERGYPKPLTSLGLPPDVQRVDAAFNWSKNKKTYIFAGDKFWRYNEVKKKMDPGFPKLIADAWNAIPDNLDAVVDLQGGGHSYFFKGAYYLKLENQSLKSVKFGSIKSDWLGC
Chain of Matrix metalloproteinase-9 (P14780 whole entry): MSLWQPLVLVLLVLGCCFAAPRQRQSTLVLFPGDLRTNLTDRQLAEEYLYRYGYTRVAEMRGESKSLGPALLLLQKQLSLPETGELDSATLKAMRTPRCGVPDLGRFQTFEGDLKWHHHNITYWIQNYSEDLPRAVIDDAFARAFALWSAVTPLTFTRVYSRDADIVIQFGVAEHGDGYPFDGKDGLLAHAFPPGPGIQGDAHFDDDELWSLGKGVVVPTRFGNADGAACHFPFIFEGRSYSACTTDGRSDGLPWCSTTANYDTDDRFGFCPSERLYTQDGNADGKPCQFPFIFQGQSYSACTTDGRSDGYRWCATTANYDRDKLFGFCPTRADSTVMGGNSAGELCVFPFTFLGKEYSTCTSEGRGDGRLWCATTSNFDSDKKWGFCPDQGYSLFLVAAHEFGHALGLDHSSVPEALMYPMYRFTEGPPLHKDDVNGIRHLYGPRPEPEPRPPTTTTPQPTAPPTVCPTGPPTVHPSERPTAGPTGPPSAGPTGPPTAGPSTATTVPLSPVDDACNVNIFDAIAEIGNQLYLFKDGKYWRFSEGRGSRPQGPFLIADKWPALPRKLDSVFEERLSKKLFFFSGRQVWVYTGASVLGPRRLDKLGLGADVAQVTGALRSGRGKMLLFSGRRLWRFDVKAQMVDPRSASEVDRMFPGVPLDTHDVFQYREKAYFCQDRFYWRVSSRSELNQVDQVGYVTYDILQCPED
Chain of Stromelysin-1 (P08254 whole entry): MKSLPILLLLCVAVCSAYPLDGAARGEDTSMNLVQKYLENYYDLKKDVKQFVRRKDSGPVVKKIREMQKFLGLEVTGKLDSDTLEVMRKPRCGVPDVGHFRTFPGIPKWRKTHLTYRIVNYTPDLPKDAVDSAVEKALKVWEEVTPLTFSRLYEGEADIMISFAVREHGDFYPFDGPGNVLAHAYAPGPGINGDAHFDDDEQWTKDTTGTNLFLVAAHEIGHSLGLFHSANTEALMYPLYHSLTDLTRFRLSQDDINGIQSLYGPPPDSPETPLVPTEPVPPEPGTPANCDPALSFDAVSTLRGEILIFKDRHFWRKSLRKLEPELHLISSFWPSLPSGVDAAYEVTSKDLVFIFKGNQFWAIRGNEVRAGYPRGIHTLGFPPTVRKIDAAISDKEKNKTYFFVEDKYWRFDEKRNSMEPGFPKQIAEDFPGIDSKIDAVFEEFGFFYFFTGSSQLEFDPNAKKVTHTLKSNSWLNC

| SMILES | IC50 [1] | other results |
| --- | --- | --- |
| COc1cccc(C#Cc2ccc(SC(CCN3C(=O)c4ccccc4C3=O)C(=O)O)cc2)c1 (centres undefined) | 4 nM |  |
| N#Cc1ccc(N2CCN(c3ccc(S(=O)(=O)C(CCN4C(=O)c5ccccc5C4=O)C(=O)O)cc3)CC2)cc1 (centres undefined) | 6.8 nM |  |
| O=C(O)C(CCN1C(=O)c2ccccc2C1=O)S(=O)(=O)c1ccc(Oc2ccc(OC(F)(F)F)cc2)cc1 (centres undefined) | 19 nM |  |
| O=C(O)C(CCN1C(=O)c2ccccc2C1=O)S(=O)(=O)c1ccc(N2CC=C(c3ccc(Cl)cc3)CC2)cc1 (centres undefined) | 12 nM |  |
| O=C(O)C(CCN1Cc2ccccc2C1=O)S(=O)(=O)c1ccc(-c2ccc(Cl)cc2)cc1 (centres undefined) | 8.6 nM | IC50 [2]: 96.5 nM |
| O=C(O)C(CN1C(=O)c2ccccc2C1=O)S(=O)(=O)c1ccc(-c2ccc(Cl)cc2)cc1 (centres undefined) | 556 nM | IC50 [2]: 1050 nM |
| Cc1ccc(C#Cc2ccc(SC(CCN3C(=O)c4ccccc4C3=O)C(=O)O)cc2)cc1 (centres undefined) | 33 nM |  |
| O=C(O)C(CCSc1ccccc1)S(=O)(=O)c1ccc(-c2ccc(Cl)cc2)cc1 (centres undefined) | 295 nM | IC50 [2]: > 10000 nM |
| O=C(O)C(CCN1C(=O)c2ccccc2C1=O)S(=O)(=O)c1ccc(-c2nc3ccc(F)cc3[nH]2)cc1 (centres undefined) | 0.7 nM | IC50 (Stromelysin-1): 34 nM; IC50 (Collagenase 3): 0.8 nM; IC50 (Interstitial collagenase): > 1000 nM |
| Cc1ccc(C#Cc2ccc(S(=O)(=O)C(CCN3C(=O)c4ccccc4C3=O)C(=O)O)cc2)cc1 (centres undefined) | 0.7 nM | IC50 (Stromelysin-1): 28 nM; IC50 (Collagenase 3): 1.4 nM; IC50 (Interstitial collagenase): > 1000 nM |
| COc1ccc(C(=O)Cc2ccc(SC(CCN3C(=O)c4ccccc4C3=O)C(=O)O)cc2)cc1 (centres undefined) | 54 nM |  |
| CCCC(C(=O)O)S(=O)(=O)c1ccc(-c2ccc(Cl)cc2)cc1 (centres undefined) | 792 nM | IC50 [2]: 10000 nM |
| O=C(O)C(CCN1C(=O)c2ccccc2C1=O)S(=O)(=O)c1ccc(-c2ccc(F)cc2)cc1 (centres undefined) | 6.5 nM |  |
| O=C(O)C(CCCN1C(=O)c2ccccc2C1=O)S(=O)(=O)c1ccc(-c2ccc(Cl)cc2)cc1 (centres undefined) | 145 nM | IC50 [2]: 2120 nM |
| CC(CCN1C(=O)c2ccccc2C1=O)(C(=O)O)S(=O)(=O)c1ccc(-c2ccc(Cl)cc2)cc1 (centres undefined) | 52 nM |  |
| CC(CCN1Cc2ccccc2C1)(C(=O)O)S(=O)(=O)c1ccc(-c2ccc(Cl)cc2)cc1 (centres undefined) | 3060 nM | IC50 [2]: > 10000 nM |

Continued, in another order:

| IC50 [1] | SMILES | other results |
| --- | --- | --- |
| 1.5 nM | Cc1ccc(C#Cc2ccc([S+]([O-])C(CCN3C(=O)c4ccccc4C3=O)C(=O)O)cc2)cc1 (centres undefined) |  |
| 0.84 nM | COc1ccc(-c2ccc(S(=O)(=O)C(CCN3C(=O)c4ccccc4C3=O)C(=O)O)cc2)cc1 (centres undefined) |  |
| 1.7 nM | CC(C)c1ccc(C#Cc2ccc(SC(CCN3C(=O)c4ccccc4C3=O)C(=O)O)cc2)cc1 (centres undefined) |  |
| 2.3 nM | CCCCc1ccc(C#Cc2ccc(SC(CCN3C(=O)c4ccccc4C3=O)C(=O)O)cc2)cc1 (centres undefined) |  |
| 3 nM | N#Cc1ccc(-c2ccc(S(=O)(=O)C(CCN3C(=O)c4ccccc4C3=O)C(=O)O)cc2)cc1 (centres undefined) |  |
| 0.74 nM | CSc1ccc(-c2ccc(S(=O)(=O)C(CCN3C(=O)c4ccccc4C3=O)C(=O)O)cc2)cc1 (centres undefined) |  |
| 1.9 nM | O=C(O)C(CCN1C(=O)c2ccccc2C1=O)Sc1ccc(C#Cc2ccc(Cl)cc2)cc1 (centres undefined) |  |
| 1.8 nM | O=C(O)C(CCN1C(=O)c2ccccc2C1=O)S(=O)(=O)c1ccc(-c2ccc(Cl)cc2)cc1 (centres undefined) | AUC [3]: 18200 ng·h/mL; C0 [4]: 41.4 µM; half-life [5]: 230 min; T1/2 (Rattus norvegicus [6]): 1.4 h; Vss (Rattus norvegicus [7]): 0.4 L/kg |
| 1.1 nM | CCCc1ccc(C#Cc2ccc(SC(CCN3C(=O)c4ccccc4C3=O)C(=O)O)cc2)cc1 (centres undefined) |  |
| 1.3 nM | O=C(O)C(CCN1C(=O)c2ccccc2C1=O)Sc1ccc(C#Cc2ccc(OC(F)(F)F)cc2)cc1 (centres undefined) |  |
| 1.3 nM | CCc1ccc(C#Cc2ccc(SC(CCN3C(=O)c4ccccc4C3=O)C(=O)O)cc2)cc1 (centres undefined) |  |
| 0.62 nM | O=C(NO)C(CCN1C(=O)c2ccccc2C1=O)S(=O)(=O)c1ccc(-c2ccc(Cl)cc2)cc1 (centres undefined) | AUC [3]: 2940 ng·h/mL; C0 [4]: 13.9 µM; half-life [5]: 12 min; IC50 [2]: 1.4 nM; half-life [8]: 58.8 min; Vd [9]: 0.1 L/kg; clearance [10]: 2.9 mL/min/kg |
| 0.98 nM | CC(C)c1ccc(-c2ccc(S(=O)(=O)C(CCN3C(=O)c4ccccc4C3=O)C(=O)O)cc2)cc1 (centres undefined) |  |
| 1.2 nM | Cc1ccc(-c2ccc(S(=O)(=O)C(CCN3C(=O)c4ccccc4C3=O)C(=O)O)cc2)cc1 (centres undefined) |  |
